Laboratory results from ChEMBL document CHEMBL5674860, “Optimized Dual-Glo Assay to identify co-culture-induced drug vulnerabilities in 3D CRC models” (2024).

Key:
Assay type in all cases: functional, Homo sapiens
Set-up in all cases: dose or concentration left out as unconfirmed
Colon cancer organoid [1] = test: Optimized Dual-Glo assay to identify co-culture induced drug vulnerabilities using donated chemical probes and chemogenomics kinase set in O06 CRC organoid and F06 CAF mono and co-culture. […] Cell viability is reported both mono and co-culture models.
Colon cancer organoid [2] = test: Optimized Dual-Glo assay to identify co-culture induced drug vulnerabilities using donated chemical probes and chemogenomics kinase set in O14 CRC organoid and F14 CAF mono and co-culture. […] Cell viability is reported both mono and co-culture models.
Colon cancer organoid [3] = test: Optimized Dual-Glo assay to identify co-culture induced drug vulnerabilities using donated chemical probes and chemogenomics kinase set in O20 CRC organoid and F20 CAF mono and co-culture. […] Cell viability is reported both mono and co-culture models.
[4] = Culture type Co-Culture, Transduced with Lucferase2-P2A-EGFP lentivirus
[5] = Culture type Co-Culture, Transduced with Renilla-dsRed lentivirus
[6] = Culture type Mono-Culture, Transduced with Lucferase2-P2A-EGFP lentivirus
[7] = Culture type Mono-Culture, Transduced with Renilla-dsRed lentivirus

Compound	Cell Viability (Colon cancer organoid [1]; [4]) [%]	Cell Viability (Colon cancer organoid [1]; [5]) [%]	Cell Viability (Colon cancer organoid [1]; [6]) [%]	Cell Viability (Colon cancer organoid [1]; [7]) [%]	Cell Viability (Colon cancer organoid [2]; [4]) [%]	Cell Viability (Colon cancer organoid [2]; [5]) [%]	Cell Viability (Colon cancer organoid [2]; [6]) [%]	Cell Viability (Colon cancer organoid [2]; [7]) [%]	Cell Viability (Colon cancer organoid [3]; [4]) [%]	Cell Viability (Colon cancer organoid [3]; [5]) [%]	Cell Viability (Colon cancer organoid [3]; [6]) [%]	Cell Viability (Colon cancer organoid [3]; [7]) [%]
Cc1nc(C2CCN(C(=O)c3ccc(OC(F)(F)F)cc3N)CC2)c2ncc(N3CCN(C)CC3)cc2n1 [BAY-693]	114.208	166.908	75.386	110.093	86.7565	92.2226	129.525	92.5719	93.857	129.276	111.777	88.9169
O=C(O)[C@@H]1[C@@H](Cn2nnc3ccccc3c2=O)CC[C@H]1C(=O)c1ccc(OCCC2CCOCC2)cc1 [BAY-694]	117.739	144.793	97.4704	83.1858	106.85	112.908	118.458	100.512	92.0939	91.7477	167.035	108.76
O=C(NCc1ncc(C(F)(F)F)cc1Cl)c1ccc2c(c1)C1(CCS(=O)(=O)CC1)[C@@H](C1CC1)N2S(=O)(=O)c1ccc(F)cc1 [BAY-786]	112.409	138.316	97.377	88.5192	75.9207	99.8085	94.4221	104.267	102.274	106.984	104.026	100.592
Cc1c(NC(=O)c2cc(C(N)=O)nc3cc(F)ccc23)c(C(F)(F)F)nn1Cc1ccc(C#N)cc1 [BAY-876]	9.2808	424.118	4.84	74.218	22.1239	120.557	31.4127	63.4994	13.842	190.785	15.2674	77.5911
CN1CCN(c2cnc3c(C4CCN(C(=O)c5ccc(OC(F)(F)F)cc5N)CC4)ncnc3c2)CC1 [BAY-885]	128.922	132.533	82.0167	90.7895	92.1967	106.052	52.9657	104.304	78.3205	141.163	69.7079	80.8249
O=C(Nc1cnc(Oc2ccc(F)cc2)nc1)N1CCc2ncccc2[C@@H]1c1ccc(F)cc1 [BAY-899]	92.2798	100.101	137.923	100.535	76.8335	114.239	91.8718	105.629	151.718	104.61	76.6403	85.9791
CC1=C(C#N)C(c2ccc3c(c2)c(NC(=O)c2ccccc2C)nn3C)C(C#N)=C(C)N1 [BAY-974]	97.6295	94.9804	90.396	95.4639	102.224	90.7163	99.5288	100.218	105.235	128.576	108.1	107.642
C[C@H](c1ccnc(Nc2nc3ccc(-c4cc(N(C)C)ncn4)cc3[nH]2)c1)N1CCN(C(=O)CC(F)(F)F)CC1 [BAY-985]	134.436	180.071	90.5996	96.3949	122.433	113.895	111.789	77.4572	129.711	125.86	106.931	106.043
NS(=O)(=O)c1cc(NC(=O)Cc2ccccc2)ccc1Oc1cccc(Cl)c1 [BAY-1797]	120.23	167.635	96.4062	112.706	108.747	112.127	131.361	106.475	89.0927	86.996	102.238	103.793
CCc1ccccc1C(=O)Nc1n[nH]c2c(C)c(F)c(C3C(C#N)=C(C)N(C)C(C)=C3C#N)cc12 [BAY-3827]	80.578	109.489	83.7184	82.828	89.6646	118.565	81.9788	77.2526	74.4041	157.673	58.8443	110.691
Cn1cc(Cl)c2c(Oc3c(F)cc(Nc4cc(Cl)nc(N)n4)cc3F)ccnc21 [BAY-4900]	121.536	149.241	59.0633	101.592	109.877	85.9396	108.551	92.3665	91.184	109.2	84.5951	91.9324
Cc1c(N2CCCC2)nc2ccc(Br)cc2c1C(=O)NC[C@H](CCC(=O)O)c1ccccc1Cl [BAY-6672]	132.373	142.298	78.4477	99.1733	130.472	109.165	108.929	91.644	83.0644	119.315	90.6805	98.6918
COc1ccc(Oc2cc(NCCC(F)(F)F)c3ncc(-c4ccc(C(=O)NC5CC5)c(C)c4)n3n2)c(F)c1F [BAY-1217389]	5.893	100.303	6.114	52.2962	15.963	131.783	28.3238	88.2574	10.1003	184.891	6.085	72.716
CC(=O)N1CCC(c2ccc(C(=O)NC3=NCCN3)cc2C(F)(F)F)CC1 [BI 0054]	128.003	143.254	114.863	104.942	129.436	116.761	105.472	102.083	121.714	122.015	116.125	107.845
